Test results reported in ChEMBL document CHEMBL2074356, “Direct evidence for peptide transporter (PepT1)-mediated uptake of a nonpeptide prodrug, valacyclovir” (Biochem Biophys Res Commun, 1998).
Non-standard residues stand in square brackets, D forms with d. Residues, ends and D or L forms follow the SMILES beside them. Sar = CNCC(=O)O

Columns and labels:
[1] = target: T1, Solute carrier family 15 member 1 (Homo sapiens) (UniProt P46059); experiment: TP_TRANSPORTER: inhibition of VACV uptake (VACV: 0.2 uM, Carnosine: 10000 uM) in Xenopus laevis oocytes; format: functional, cell-based; conditions: Oocyte
T1 sequence (whole entry): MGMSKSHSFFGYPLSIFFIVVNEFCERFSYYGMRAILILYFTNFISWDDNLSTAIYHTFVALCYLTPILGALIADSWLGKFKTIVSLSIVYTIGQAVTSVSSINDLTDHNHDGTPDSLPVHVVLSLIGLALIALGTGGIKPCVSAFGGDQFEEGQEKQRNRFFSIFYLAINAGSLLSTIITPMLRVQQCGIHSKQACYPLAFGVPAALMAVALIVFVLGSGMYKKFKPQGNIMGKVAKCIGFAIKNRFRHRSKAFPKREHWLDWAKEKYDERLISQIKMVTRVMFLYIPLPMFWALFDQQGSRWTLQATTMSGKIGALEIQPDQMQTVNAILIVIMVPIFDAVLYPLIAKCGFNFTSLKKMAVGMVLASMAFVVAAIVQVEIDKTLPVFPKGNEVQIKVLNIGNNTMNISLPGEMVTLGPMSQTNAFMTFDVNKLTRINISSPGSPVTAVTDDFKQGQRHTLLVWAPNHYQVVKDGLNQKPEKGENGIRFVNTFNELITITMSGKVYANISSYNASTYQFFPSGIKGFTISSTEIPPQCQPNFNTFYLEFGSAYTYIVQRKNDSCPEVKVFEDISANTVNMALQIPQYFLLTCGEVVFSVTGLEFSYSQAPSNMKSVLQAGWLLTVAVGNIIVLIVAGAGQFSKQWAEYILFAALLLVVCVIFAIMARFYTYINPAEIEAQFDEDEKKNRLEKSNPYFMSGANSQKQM

[2] = target: T1, Solute carrier family 15 member 1 (Homo sapiens); experiment: TP_TRANSPORTER: inhibition of VACV uptake (VACV: 0.2 uM, Gly-Sar: 10000 uM) in Xenopus laevis oocytes; format: functional, cell-based; conditions: Oocyte
[3] = target: T2, Solute carrier family 15 member 1 (Homo sapiens, UniProt P46059); experiment: TP_TRANSPORTER: inhibition of Gly-Sar uptake in Xenopus laevis oocytes; format: functional, cell-based, Oocyte
T2 sequence (P46059 whole entry): T1 sequence (whole entry)

[4] = target: T1, Solute carrier family 15 member 1 (Homo sapiens); experiment: TP_TRANSPORTER: inhibition of VACV uptake (VACV: 0.2 uM, Gly-Gly-Gly: 10000 uM) in Xenopus laevis oocytes; format: functional, cell-based; conditions: Oocyte
[5] = substrate: CC(C)[C@H](N)C(=O)OCCOCn1cnc2c(=O)nc(N)[nH]c21; conditions: Xenopus laevis; Oocyte

NCCC(=O)N[C@@H](Cc1c[nH]cn1)C(=O)O
Activity [1]: inhibitor [70% (at a rough estimate) of control]

CN(CC(=O)O)C(=O)CN (H-Gly-[Sar]-OH)
Activity [2]: inhibitor [55% (at a rough estimate) of control]

CC(C)[C@H](N)C(=O)OCCOCn1cnc2c(=O)[nH]c(N)nc21 [VALACYCLOVIR]
Ki [3]: 4.08 mM

NCC(=O)NCC(=O)NCC(=O)O
Activity [4]: inhibitor [55% (at a rough estimate) of control]

B1: Solute carrier family 15 member 1 (Homo sapiens), P46059 (protein)
chain: T1 sequence (whole entry)
Km [5]: 5.94 mM
